Data reported in US10028931B2, “Synergistic compositions for treating microbial infections” (UNIVERSITY OF ROCHESTER, priority 2014, dated 2018).
Values after ≈ are worked out from the molar mass of the structure shown. Read-outs that look alike come from different tables or passages of the source.

Tests used:
[1] = test system: Staphylococcus aureus strain UAMS-1; assay: Antimicrobial susceptibility testing (MIC, broth microdilution); type: cell-based; conditions: S. aureus UAMS-1, Mueller Hinton broth, 37° C.
Experimental: The RNase P inhibitors described herein were tested for antimicrobial activity toward Staphylococcus aureus strain UAMS-1. Individual wells of a 96-well microtiter plate were inoculated with ˜1×10^5 colony-forming units (CFU) of the indicated organism, containing two-fold increasing concentrations (from 0 to 256 μg mL^−1) of the indicated antibiotic or putative RnpA inhibitor, and incubated at 37° C. for 18 hours in Mueller Hinton broth. The MIC was defined as the lowest concentration of antibiotic in which there was no visible bacterial growth in the wells. Minimum bactericidal concentration testing was performed by enumerating the bacterial cells in each of the wells containing treatments at and above the MIC.

[2] = target: T1, RnpA (Staphylococcus aureus, UniProt P0A0H5); assay: RnpA mRNA degradation activity assay; type: biochemical; conditions: RnpA mRNA degradation, gel densitometry; read-out: RnpA IC50
T1 sequence (P0A0H5 1-117): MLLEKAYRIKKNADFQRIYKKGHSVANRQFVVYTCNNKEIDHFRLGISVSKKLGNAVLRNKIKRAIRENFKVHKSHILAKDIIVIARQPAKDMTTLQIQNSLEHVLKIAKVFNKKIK
Experimental: The RNase P inhibitors described herein were tested for activity toward RnpA mRNA degradation activity. Either 1 μg of total S. aureus RNA or 1 pmol of in vitro synthesized spa mRNA was incubated with 20 pmol RnpA at 37° C. for 15 to 30 min in a reaction buffer (50 mM Tris-HCl pH 8.0, 2 mM NaCl, 2 mM MgCl2) in the absence or presence of the indicated compound. Reactions were stopped by adding an equal volume of 2×RNA loading dye (95% formamide, 0.025% SDS, 0.025% bromophenol blue, 0.025% xylene cyanol FF, 0.5 mM EDTA), run on a denaturing 1.0% agarose-0.66 M formaldehyde gel and stained with ethidium bromide. RNA substrates and corresponding degradation products were visualized using a FluorChem 5500 system (Alpha Innotech; San Leandro, Calif.). The inhibitory effects of the test compounds were measured using Image J densitometry software (National Institutes of Health; Bethesda, Md.) to quantify the signal intensity of the RNA band(s) in the negative control (RNA alone), positive control (RnpA+RNA+DMSO), and experimental samples (RnpA+RNA+test compound). The percent enzyme inhibition of test compounds was calculated using the following equation: Percent inhibition=[(experimental signal-positive control)/(negative control signal-positive control signal)]*100.

[3] = test system: S. aureus strain UAMS-1; assay: Fractional Inhibitory Concentration testing with mupirocin; type: cell-based; conditions: combined with mupirocin, S. aureus UAMS-1, Mueller Hinton broth, 18 hours; synergistic FIC≤0.5
Experimental: The RNase P inhibitors described herein were tested for Fractional Inhibitory Concentration (FIC) in the presence of mupirocin. FIC testing was performed to determine the combined effects of mupirocin and the RnpA inhibitors as described herein. Individual wells of a 96-well microtiter plate were inoculated with 1×10^5 CFU of S. aureus strain UAMS-1 in a Mueller Hinton broth. Each row of the plate contained increasing concentrations of RNPA1000 or RNPA2000 (two-fold increments; 0, 0.004, 0.008, 0.016, 0.03, 0.06, 0.125, 0.25, 0.5, 1, 2, or 4×MIC), whereas each column contained increasing concentrations of the indicated antibiotic (two-fold increments; 0, 0.06, 0.125, 0.25, 0.5, 1, 2, or 4×MIC). Plates were incubated for 18 hours at 37° C., and growth was detected by the unaided eye. The FIC was determined using the following formula: (MIC of Drug A in Combination/MIC of Drug A Alone)+(MIC of Drug B in Combination/MIC of Drug B Alone)=FIC. A synergistic interaction was defined as an FIC value≤0.5, no interaction as an FIC of 0.5-4, or an antagonistic interaction FIC>4.

[4] = target: T2, S. aureus RNase P (RnpA+rnpB) (Staphylococcus aureus, UniProt P0A0H5); assay: RNase P activity assay (precursor tRNA processing); type: biochemical; conditions: ptRNATyr processing, gel densitometry; read-out: RNase P IC50
T2 sequence (P0A0H5 1-117): T1 sequence (P0A0H5 1-117)
Experimental: The RNase P inhibitors described herein were tested for activity toward RNase P. S. aureus RNase P activity assays were performed in low salt buffer (50 mM Tris-HCl pH 8.0, 5 mM MgCl2) or in high salt buffer (50 mM Tris-HCl pH 8.0, 100 mM MgCl2, 800 mM NH4Cl). For all reactions, ptRNATyr, tRNATyr, or rnpB RNA species were first denatured by heating to 95° C. for 3 minutes, and then slowly cooling the mixtures to room temperature. RNase P was reconstituted by mixing an equal molar ratio of RnpB and RnpA for 15 min at 37° C. Precursor tRNA processing reactions (20 μL) were performed by mixing 1.25 pmol RNase P (RnpA+rnpB), RnpA, or rnpB with an equal volume of 2× low salt buffer or 2× high salt buffer and 10 pmol ptRNATyr. Mixtures were incubated for 15 min at 37° C. Reactions were stopped by adding 20 μL 2×RNA loading dye (95% formamide, 0.025% SDS, 0.025% bromophenol blue, 0.025% xylene cyanol FF, 0.5 mM EDTA), and 30 μL of each sample was electrophoresed in a 7 M urea/8% polyacrylamide gel and was then stained with ethidium bromide (0.5 μg/ml). Where indicated, reactions were repeated in the presence of the indicated amount of putative RnpA inhibitors or dimethyl sulfoxide (DMSO). A FluorChem 5500 imaging system was used to visualize the RNA, and the relative abundance of the mature tRNATyr band in the positive control (RNase P+DMSO) or in samples containing test compounds was measured using Image J densitometry software (NIH). The percent RNase P activity was then calculated using the following calculation: (test compound tRNATyr signal/positive control tRNATyr signal)*100.

[5] = Staphylococcus aureus, UAMS1, 18 h, read-out: MIC

Structure (SMILES)	MIC [1, 5] [µg/mL]	IC50 [2] [µM]	FIC with Mupirocin [3]	IC50 [4] [µM]	MIC ([1]; 18 hours) [µg/mL]
Cc1ccccc1OCC(=O)NNC(=S)NC(=O)c1ccco1 [ST5522690]	16 (≈ 48 µM)	> 500	1	> 500	
CCOc1ccc(C(=O)NC(=S)NNC(=O)COc2cc(C)ccc2C(C)C)cc1 [ST5528173]	32 (≈ 74.5 µM)	> 500	1	230	
Cc1ccc(C(=O)NC(=S)NNC(=O)COc2ccc(C(C)C)cc2)o1 [MC-190044]	32 (≈ 85.2 µM)	30	0.49	105	
COc1ccccc1C(=O)NNC(=O)COc1ccc(C(C)C)cc1 [MC-190032]	> 128	> 500	0.75	75	
CC(C)c1ccccc1OCC(=O)NNC(=S)NC(=O)c1ccccc1OCCOc1ccccc1 [ST5528880]	> 128	> 500	0.56	380	
Cc1occc1C(=O)NNC(=S)NC(=O)COc1ccc(Cl)cc1Cl [ST5523108]	4 (≈ 9.94 µM)	> 500	0.49	75	
O=C(NNC(=S)NC(=O)c1ccco1)c1ccc(F)cc1 [ST5703018]	64 (≈ 208 µM)	> 500	0.625	> 500	
Cc1ccc(OCC(=O)NNC(=S)NC(=O)c2ccc(Br)o2)c(C)c1 [ST5523326]	8 (≈ 18.8 µM)	380	0.375	75	
Cc1cc(C)cc(OCC(=O)NNC(=S)NC(=O)C2CC2)c1 [ST5523339]	16 (≈ 49.8 µM)	> 500	1		
O=C(COc1ccc(-c2ccccc2)cc1)NNC(=S)NC(=O)c1ccc(Br)o1 [ST5524465]	32 (≈ 67.5 µM)	45	0.625	65	
CC(C)c1ccc(OCC(=O)NNC(=O)/C=C/c2cc3ccccc3o2)cc1 [MC-190048]	> 256	< 50	0.5625	< 50	
CC(C)c1ccc(OCC(=O)NNC(=S)NC(=O)c2nc3ccccc3[nH]2)cc1 [MC-190052]	128 (≈ 311 µM)	150	0.56	90	
CCCc1ccc(OCC(=O)NNC(=S)NC(=O)c2ccco2)cc1 [ST5682783]	> 128	> 500	0.31	65	
CCCOc1ccc(C(=O)NNC(=S)NC(=O)c2ccco2)cc1 [ST5684191]	8 (≈ 23 µM)	> 500	0.375	> 500	
O=C(COc1ccc(Cl)cc1Br)NNC(=S)NC(=O)c1ccco1 [ST5525958]	32 (≈ 74 µM)	> 500	0.75	125	
CC(C)c1ccc(OCC(=O)NNC(=S)NC(=O)c2ccno2)cc1 [MC-190037]	32 (≈ 88.3 µM)		0.625	> 500	
CC(C)c1ccc(OCC(=O)NNC(=S)NC(=O)c2ccccn2)cc1 [MC-190053]	32 (≈ 85.9 µM)	100	0.49	1	
CC(C)(C)c1ccc(OCC(=O)NNC(=S)NC(=O)c2ccco2)c(Br)c1 [ST5524527]	8 (≈ 17.6 µM)	> 500	0.625	200	
CC(C)c1ccc(OCC(=O)NNC(=S)NC(=O)c2cccc(-c3ccccc3)n2)cc1 [MC-190081]	> 128		0.56		
CC(C)c1ccc(/C=C/C(=O)NNC(=S)NC(=O)c2ccco2)cc1 [MC-190078]	64 (≈ 179 µM)		0.625		
CCCOc1ccc(OCC(=O)NNC(=S)NC(=O)c2ccco2)cc1 [MC-190072]	128 (≈ 339 µM)		0.625		
Cc1ccc(C(=O)NNC(=S)NC(=O)c2ccco2)cc1 [MC-190073]			0.75		64 (≈ 211 µM)
CC(C)c1ccc(OCC(=O)NNC(=S)NC(=O)c2ccco2)c(Br)c1 [ST5524693]	8 (≈ 18.2 µM)		0.49	350	
CC(C)c1ccc(OCC(=O)NNC(=S)NC(=O)c2cc3cc(F)ccc3[nH]2)cc1 [MC-190062]	64 (≈ 149 µM)		0.56		
O=C(COc1ccccc1)NNC(=S)NC(=O)c1ccco1 [MC-190079]	> 128		0.75		
CC(C)c1ccc(OCC(=O)NNC(=S)NC(=O)c2ccc3ccccc3n2)cc1 [MC-190077]	> 128		0.53		
O=C(/C=C/c1ccccc1)NNC(=S)NC(=O)c1ccco1 [MC-190074]	64 (≈ 203 µM)		0.625		
CC(C)c1ccc(OCC(=O)NNC(=S)NC(=O)c2cc3ccccc3n2C)cc1 [MC-190056]	64 (≈ 151 µM)	240	0.49		
